Test: blood-gas partition coefficient L (solubility of the gas in the blood)
Type: physicochemical
Conditions: gas 1 = R 134a, gas 2 = R 227; equilibrium between gas dissolved in blood and gas phase
Method: The solubility of gases in the blood can be described by the blood-gas partition coefficient L, which describes the ratio of the volume percentages between gas dissolved in the blood and gas present in the gas phase. The prerequisite for this is the presence of an equilibrium with identical partial pressures of the gas in the phase in which it is dissolved in the blood and in the gas phase. Lowest possible solubility of the tracer gas in the blood is desirable for the lung function diagnostic tests and especially for the determination of the FRC, because what we wish to ultimately determine is the lung volume rather than the quantity of blood in the body. By using at least two gases with different solubilities in blood, the FRC measurement can be corrected with respect to the solubility in blood. The subscripts 1 and 2 below designate the two gases, which may stand, e.g., for R 134a and R 227. It can be assumed below, without restricting the generality, that L1>L2, so that the FRC measured with gas 1 (for example, R 134a) will be greater than that determined with gas 2 (for example, R 227). The blood volume can be determined from the difference of the FRC values: [formula] […] In case of R 134a and R 227, the coefficient L1/L2 is approx. 4, so that the measured difference in FRC is divided by 3.

- coefficient L1/L2 (ratio of blood-gas partition coefficients): approx. 4
Compound: FCC(F)(F)F [R 134a, 1,1,1,2-tetrafluoroethane]

From patent US20070053841A1, “USE OF 1,1,1,2-TETRAFLUOROETHANE FOR MEASURING LUNG FUNCTION, ESPECIALLY FOR DETERMINING THE FUNCTIONAL RESIDUAL CAPACITY (FRC) OF THE LUNGS” (Drager Medical AG & Co. KG, priority 2005, published 2007)
